Measurements published in ChEMBL document CHEMBL1201862, “PubChem BioAssay data set” (2004).
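Compound exposure: 48 hours, 5 concentrations, 96-well plates. Abbreviation: GI50, concentration required for 50% inhibition of growth.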 Calls of active or inactive are those of the source. No stated cut-off is given here; in the data, active = GI50 up to about 1.1 µM and inactive = higher.

How the values were obtained:
Experiment in all cases: growth of human tumour cells (NCI), 48 h
CCRF-CEM = test system: CCRF-CEM
RPMI-8226 = test system: RPMI-8226
OVCAR-5 = test system: OVCAR-5
UO-31 = test system: UO-31
SF-295 = test system: SF-295
MOLT-4 = test system: MOLT-4
XF498 = test system: XF498
KM12 = test system: KM12
SN12C = test system: SN12C
SK-MEL-5 = test system: SK-MEL-5
DMS-273 = test system: DMS-273
RXF 631 = test system: RXF 631
SK-MEL-2 = test system: SK-MEL-2
SNB-19 = test system: SNB-19
LXFL 529 = test system: LXFL 529
M14 = test system: M14
SR = test system: SR
UACC-62 = test system: UACC-62
SF-539 = test system: SF-539
HL-60 = test system: HL-60
HOP-92 = test system: HOP-92
IGROV-1 = test system: IGROV-1
SF-268 = test system: SF-268
OVCAR-8 = test system: OVCAR-8
SNB-78 = test system: SNB-78
HCT-116 = test system: HCT-116
HT-29 = test system: HT-29
M19-MEL = test system: M19-MEL
RXF 393 = test system: RXF 393
TK-10 = test system: TK-10
LOX IMVI = test system: LOX IMVI
EKVX = test system: EKVX
NCI-H460 = test system: NCI-H460
U-251 = test system: U-251
786-0 = test system: 786-0
HCT-15 = test system: HCT-15
HOP-62 = test system: HOP-62
SW-620 = test system: SW-620
OVCAR-4 = test system: OVCAR-4
NCI-H522 = test system: NCI-H522
NCI-H226 = test system: NCI-H226
OVCAR-3 = test system: OVCAR-3
A549 = test system: A549
CAKI-1 = test system: CAKI-1
UACC-257 = test system: UACC-257
ACHN = test system: ACHN
A498 = test system: A498
NCI-H23 = test system: NCI-H23
KM-20L2 = test system: KM-20L2
SK-MEL-28 = test system: SK-MEL-28
K562 = test system: K562
COLO 205 = test system: COLO 205
DMS-114 = test system: DMS-114
SNB-75 = test system: SNB-75
SK-OV-3 = test system: SK-OV-3
HCC 2998 = test system: HCC 2998
Malme-3M = test system: Malme-3M
DLD-1 = test system: DLD-1

COc1ccc2nccc(C3OC(=O)N4CCC(=O)CC34)c2c1 (centres undefined)
GI50 (CCRF-CEM): > 100 µM (inactive)
GI50 (RPMI-8226): > 100 µM (inactive)
GI50 (OVCAR-5): > 100 µM (inactive)
GI50 (UO-31): > 100 µM (inactive)
GI50 (SF-295): > 100 µM (inactive)
GI50 (MOLT-4): > 100 µM (inactive)
GI50 (XF498): > 100 µM (inactive)
GI50 (KM12): > 100 µM (inactive)
GI50 (SN12C): > 100 µM (inactive)
GI50 (SK-MEL-5): > 100 µM (inactive)
GI50 (DMS-273): > 10 µM (inactive)
GI50 (RXF 631): > 100 µM (inactive)
GI50 (SK-MEL-2): > 100 µM (inactive)
GI50 (SNB-19): > 100 µM (inactive)
GI50 (LXFL 529): > 100 µM (inactive)
GI50 (M14): > 100 µM (inactive)
GI50 (SR): > 100 µM (inactive)
GI50 (UACC-62): > 100 µM (inactive)
GI50 (SF-539): > 100 µM (inactive)
GI50 (HL-60): > 100 µM (inactive)
GI50 (HOP-92): 67.1 µM (inactive)
GI50 (IGROV-1): > 100 µM (inactive)
GI50 (SF-268): > 100 µM (inactive)
GI50 (OVCAR-8): > 100 µM (inactive)
GI50 (SNB-78): > 100 µM (inactive)
GI50 (HCT-116): > 100 µM (inactive)
GI50 (HT-29): > 100 µM (inactive)
GI50 (M19-MEL): > 100 µM (inactive)
GI50 (RXF 393): > 100 µM (inactive)
GI50 (TK-10): > 100 µM (inactive)
GI50 (LOX IMVI): > 100 µM (inactive)
GI50 (EKVX): > 100 µM (inactive)
GI50 (NCI-H460): > 100 µM (inactive)
GI50 (U-251): > 100 µM (inactive)
GI50 (786-0): > 100 µM (inactive)
GI50 (HCT-15): > 100 µM
GI50 (HOP-62): > 100 µM (inactive)
GI50 (SW-620): > 100 µM (inactive)
GI50 (OVCAR-4): > 100 µM (inactive)
GI50 (NCI-H522): 6.84 µM (inactive)
GI50 (NCI-H226): > 100 µM (inactive)
GI50 (OVCAR-3): > 100 µM (inactive)
GI50 (A549): > 100 µM (inactive)
GI50 (CAKI-1): > 100 µM (inactive)
GI50 (UACC-257): > 100 µM (inactive)
GI50 (ACHN): > 100 µM (inactive)
GI50 (A498): > 100 µM (inactive)
GI50 (NCI-H23): > 100 µM (inactive)
GI50 (KM-20L2): > 100 µM (inactive)
GI50 (SK-MEL-28): > 100 µM (inactive)
GI50 (K562): > 100 µM (inactive)
GI50 (COLO 205): > 100 µM (inactive)

CCCn1c(SCC)c2cc3cc4ccccc4cc3cc2c1-c1nc(F)nc(F)n1
GI50 (CCRF-CEM): > 100 µM (inactive)
GI50 (RPMI-8226): > 100 µM (inactive)
GI50 (OVCAR-5): > 100 µM (inactive)
GI50 (UO-31): > 100 µM (inactive)
GI50 (SF-295): > 100 µM (inactive)
GI50 (MOLT-4): > 100 µM (inactive)
GI50 (XF498): > 100 µM (inactive)
GI50 (KM12): > 100 µM (inactive)
GI50 (SN12C): > 100 µM (inactive)
GI50 (SK-MEL-5): > 100 µM (inactive)
GI50 (DMS-273): > 100 µM (inactive)
GI50 (RXF 631): > 100 µM (inactive)
GI50 (DMS-114): > 100 µM (inactive)
GI50 (SK-MEL-2): > 100 µM (inactive)
GI50 (SNB-19): > 100 µM (inactive)
GI50 (LXFL 529): > 100 µM (inactive)
GI50 (M14): > 100 µM (inactive)
GI50 (SR): > 100 µM (inactive)
GI50 (SF-539): > 100 µM (inactive)
GI50 (HL-60): > 100 µM (inactive)
GI50 (HOP-92): > 100 µM (inactive)
GI50 (IGROV-1): > 100 µM (inactive)
GI50 (SF-268): > 100 µM (inactive)
GI50 (SNB-75): > 100 µM (inactive)
GI50 (OVCAR-8): > 100 µM (inactive)
GI50 (SNB-78): > 100 µM (inactive)
GI50 (HCT-116): > 100 µM (inactive)
GI50 (HT-29): > 100 µM (inactive)
GI50 (M19-MEL): > 100 µM (inactive)
GI50 (RXF 393): > 100 µM (inactive)
GI50 (TK-10): > 100 µM (inactive)
GI50 (LOX IMVI): > 100 µM (inactive)
GI50 (EKVX): > 100 µM (inactive)
GI50 (NCI-H460): > 100 µM (inactive)
GI50 (786-0): > 100 µM (inactive)
GI50 (HCT-15): > 100 µM
GI50 (HOP-62): > 100 µM (inactive)
GI50 (SW-620): > 100 µM (inactive)
GI50 (OVCAR-4): > 100 µM (inactive)
GI50 (SK-OV-3): > 100 µM (inactive)
GI50 (NCI-H522): > 100 µM (inactive)
GI50 (NCI-H226): > 100 µM (inactive)
GI50 (OVCAR-3): > 100 µM (inactive)
GI50 (HCC 2998): > 100 µM (inactive)
GI50 (A549): > 100 µM (inactive)
GI50 (CAKI-1): > 100 µM (inactive)
GI50 (UACC-257): > 100 µM (inactive)
GI50 (ACHN): > 100 µM (inactive)
GI50 (NCI-H23): > 100 µM (inactive)
GI50 (KM-20L2): > 100 µM (inactive)
GI50 (SK-MEL-28): > 100 µM (inactive)
GI50 (K562): > 100 µM (inactive)
GI50 (Malme-3M): > 100 µM (inactive)
GI50 (COLO 205): > 100 µM (inactive)

O=C1/C=C(/c2ccc(O)cc2)[C@@H](OC2OC(CO)C(O)C(O)C2O)Cc2ccc(O)cc2O1.O=C1/C=C(/c2ccc(O)cc2)[C@H](O)Cc2ccc(O[C@@H]3OC(CO)C(O)C(O)C3O)cc2O1 (some centres undefined)
GI50 (RPMI-8226): 25.2 µM (inactive)
GI50 (OVCAR-5): > 100 µM (inactive)
GI50 (UO-31): > 100 µM (inactive)
GI50 (SF-295): > 100 µM (inactive)
GI50 (KM12): > 100 µM (inactive)
GI50 (SN12C): > 100 µM (inactive)
GI50 (SK-MEL-5): > 100 µM (inactive)
GI50 (RXF 631): > 100 µM (inactive)
GI50 (DMS-114): > 100 µM (inactive)
GI50 (SK-MEL-2): > 100 µM (inactive)
GI50 (SNB-19): > 100 µM (inactive)
GI50 (LXFL 529): > 100 µM (inactive)
GI50 (DLD-1): > 100 µM (inactive)
GI50 (M14): > 100 µM (inactive)
GI50 (SR): 1 µM (active)
GI50 (UACC-62): > 100 µM (inactive)
GI50 (SF-539): > 100 µM (inactive)
GI50 (HL-60): 4.91 µM (inactive)
GI50 (IGROV-1): > 100 µM (inactive)
GI50 (SF-268): > 100 µM (inactive)
GI50 (OVCAR-8): > 100 µM (inactive)
GI50 (SNB-78): > 100 µM (inactive)
GI50 (HCT-116): > 100 µM (inactive)
GI50 (HT-29): > 100 µM (inactive)
GI50 (M19-MEL): > 100 µM (inactive)
GI50 (TK-10): > 100 µM (inactive)
GI50 (LOX IMVI): > 100 µM (inactive)
GI50 (EKVX): > 100 µM (inactive)
GI50 (NCI-H460): > 100 µM (inactive)
GI50 (U-251): > 100 µM (inactive)
GI50 (786-0): > 100 µM (inactive)
GI50 (HCT-15): > 100 µM
GI50 (HOP-62): > 100 µM (inactive)
GI50 (SW-620): > 100 µM (inactive)
GI50 (OVCAR-4): > 100 µM (inactive)
GI50 (SK-OV-3): > 100 µM (inactive)
GI50 (NCI-H522): > 100 µM (inactive)
GI50 (NCI-H226): > 100 µM (inactive)
GI50 (OVCAR-3): > 100 µM (inactive)
GI50 (A549): > 100 µM (inactive)
GI50 (CAKI-1): > 100 µM (inactive)
GI50 (UACC-257): > 100 µM (inactive)
GI50 (ACHN): > 100 µM (inactive)
GI50 (A498): > 100 µM (inactive)
GI50 (NCI-H23): > 100 µM (inactive)
GI50 (KM-20L2): > 100 µM (inactive)
GI50 (Malme-3M): > 100 µM (inactive)
GI50 (COLO 205): > 100 µM (inactive)
